Among the data in PubChem BioAssay (NCI) are TGI and GI50 values, retold here.

Test systems include SK-MEL-5 melanoma; RXF 393 renal; EKVX NSCLC; IGROV1 ovarian; UACC-62 melanoma; SR leukemia; SK-OV-3 ovarian; HOP-62 NSCLC; T-47D breast; MDA-N.
Holding throughout (test): inhibition of tumour cell growth, NCI panel, 48 h

Molecules are shown by their SMILES.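 Where inhibition never reached the appropriate level, the endpoint shown equals the highest concentration tested. Otherwise, values were interpolated linearly from a five-concentration, 48-hour dose response in 96-well plates. GI50 marks 50% less growth. TGI is the concentration that stops growth completely.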

On to `CCOC(=O)/C=C/n1c2ccccc2c(=O)c2cc(OC)ccc21`, for which the TGI with SK-MEL-5 melanoma, with RXF 393 renal, with EKVX NSCLC, in the test with IGROV1 ovarian, with UACC-62 melanoma and in the test with SR leukemia was > 100 µM in each case. For the same molecule, the TGI with SK-OV-3 ovarian and in the test with HOP-62 NSCLC was > 100 µM in each case.
On to `Cc1nc2cn3c(c2c(=O)[nH]1)CCCCC3`, for which the TGI with SK-MEL-5 melanoma, in the test with RXF 393 renal, in the test on EKVX NSCLC, with IGROV1 ovarian, in the test with UACC-62 melanoma and in the test with T-47D breast was > 100 µM each time. For the same molecule, the TGI in the test on SR leukemia, in the test with SK-OV-3 ovarian and in the test with HOP-62 NSCLC was > 100 µM throughout.
In the case of `COC(CNC(=O)CNC(=O)c1ccc(C(F)(F)F)cc1)OC`, the TGI with SK-MEL-5 melanoma, in the test with RXF 393 renal, in the test on EKVX NSCLC, with IGROV1 ovarian, with UACC-62 melanoma and in the test on T-47D breast was > 100 µM each time. For the same molecule, the TGI in the test on SR leukemia, with MDA-N and with SK-OV-3 ovarian was > 100 µM throughout.
Turning to `CCOC(=O)NN(C(=O)OCC)c1ccc(N=Nc2ccc(OC)cc2)n1C`, the TGI in the test with SK-MEL-5 melanoma was 32.6 µM; in the test with RXF 393 renal, > 100 µM; in the test on EKVX NSCLC, > 100 µM; with IGROV1 ovarian, 87.2 µM; with UACC-62 melanoma it was > 100 µM; with T-47D breast, 76.2 µM. The values for the TGI with MDA-N, in the test on SK-OV-3 ovarian and in the test with HOP-62 NSCLC were 40.7 µM, > 100 µM and 86.8 µM, respectively.
Take `C/C=C/CC(C(=O)OCC)(N(C)C(=O)OC(C)(C)C)S(=O)(=O)c1ccc(C)cc1` (stereo not given): the TGI with SK-MEL-5 melanoma, in the test with RXF 393 renal, with EKVX NSCLC, in the test on IGROV1 ovarian, in the test with UACC-62 melanoma and in the test on T-47D breast was > 100 µM in each case. For the same molecule, the TGI in the test with MDA-N was 48 µM; in the test on HOP-62 NSCLC, > 100 µM.
As for `COc1c(C)c(C/C=C(\C)CC/C=C(\C)CC/C=C(\C)CCC=C(C)C)c(OC)c(OC)c1OC`, the TGI in the test on SK-MEL-5 melanoma, in the test with RXF 393 renal, in the test with EKVX NSCLC, in the test with IGROV1 ovarian, in the test on UACC-62 melanoma and with SR leukemia was > 100 µM in each case. The TGI in the test on MDA-N, in the test on SK-OV-3 ovarian and in the test on HOP-62 NSCLC was > 100 µM throughout.
In the case of `CC(=O)c1ccc(N2C(=O)C3c4[nH]c5ccccc5c4C4CCC(C(C)(C)C)CC4C3C2=O)cc1` (stereo not given), the TGI in the test on SK-MEL-5 melanoma was 58.8 µM; with RXF 393 renal it was 32.7 µM; in the test on EKVX NSCLC, 94.1 µM; with IGROV1 ovarian, > 100 µM; with UACC-62 melanoma it was 59.3 µM; in the test on SR leukemia, 70.9 µM. Moreover, the values for the TGI with SK-OV-3 ovarian and in the test with HOP-62 NSCLC were > 100 µM and 38.5 µM, respectively.
As to `Cc1ccc(Nc2c3c(c(C#N)c4nc5ccccc5n24)CCCC3)cc1`, the TGI in the test with SK-MEL-5 melanoma is 23.4 µM; with EKVX NSCLC it was > 100 µM; with IGROV1 ovarian, > 100 µM; with UACC-62 melanoma it was 71.2 µM; in the test on T-47D breast it was > 100 µM; in the test with MDA-N, > 100 µM. For the same molecule, the TGI with SK-OV-3 ovarian was > 100 µM.
Regarding `C=CCn1c(-c2cc(C(C)(C)C)c(O)c(C(C)(C)C)c2)cs/c1=N\C(P(=O)(O)O)P(=O)(O)O`, the TGI with EKVX NSCLC, with IGROV1 ovarian, in the test with T-47D breast, in the test with SR leukemia, in the test with SK-OV-3 ovarian and in the test on HOP-62 NSCLC was > 100 µM each time.
Regarding `O=C(N/N=C(/COc1ccccc1)N=Cc1ccncc1)c1ccncc1`, the TGI in the test on RXF 393 renal, in the test on EKVX NSCLC, in the test on IGROV1 ovarian, in the test on UACC-62 melanoma, in the test on T-47D breast and in the test with MDA-N was > 100 µM each time. Moreover, the TGI in the test with SK-OV-3 ovarian and with HOP-62 NSCLC was > 100 µM in each case.
In the case of `COC1(OC)CC2C(=O)N(Cc3ccccc3)C1C(S(=O)(=O)c1ccccc1)C2C(C)S(=O)(=O)c1ccccc1` (stereo not given), the TGI with SK-MEL-5 melanoma, in the test on RXF 393 renal, in the test on EKVX NSCLC, in the test with IGROV1 ovarian, in the test on UACC-62 melanoma and in the test with SR leukemia was > 100 µM in each case. The TGI in the test on SK-OV-3 ovarian and in the test with HOP-62 NSCLC was > 100 µM each time.
In the case of `C1=N[C@]23C(=N[C@H](N=C2NCc2ccco2)[C@]24N=CNC2=N[C@H]3N=C4NCc2ccco2)N1`, the GI50 in the test with SK-MEL-5 melanoma was > 100 µM; in the test with RXF 393 renal, > 100 µM; in the test with EKVX NSCLC, 89.5 µM; in the test with IGROV1 ovarian, > 100 µM; in the test with UACC-62 melanoma, > 100 µM; in the test on T-47D breast, > 100 µM. Also, the GI50 in the test on SR leukemia, in the test on SK-OV-3 ovarian and with HOP-62 NSCLC was > 100 µM each time. The TGI in the test on SK-MEL-5 melanoma, in the test with RXF 393 renal, in the test on EKVX NSCLC, in the test on IGROV1 ovarian, with UACC-62 melanoma and with T-47D breast was > 100 µM throughout. In addition, the TGI in the test with SR leukemia, with SK-OV-3 ovarian and with HOP-62 NSCLC was > 100 µM each time.
Take `C/C=C1\CC(C(=O)OCC)CCCCCCC1=O` (stereo not given): the TGI in the test with SK-MEL-5 melanoma, in the test with RXF 393 renal, in the test with EKVX NSCLC, with IGROV1 ovarian, in the test on UACC-62 melanoma and in the test with T-47D breast was > 100 µM in each case. Besides, the TGI with MDA-N, with SK-OV-3 ovarian and in the test on HOP-62 NSCLC was > 100 µM in each case.
In the case of `CCOC(=O)COc1cc(-c2ccccc2F)nc2cc3c(cc12)OCO3`, the TGI in the test with SK-MEL-5 melanoma, in the test with RXF 393 renal, in the test with EKVX NSCLC, in the test on IGROV1 ovarian, in the test on UACC-62 melanoma and in the test with T-47D breast was > 100 µM in each case. The TGI with MDA-N, in the test with SK-OV-3 ovarian and in the test with HOP-62 NSCLC was > 100 µM throughout.
